Results on two substances are retold here after paper PMC8312610, “F4, a collagen XIX-derived peptide, inhibits tumor angiogenesis through αvβ3 and α5β1 integrin interaction” (Cell Adhesion & Migration, 2021).

Entries after “also recorded” stand apart in the source; their conditions may differ. Positions of bridges follow the written chain, without caps; N, C: chain ends. No end group written: not given here.

Assay [1] has as its system HUVEC (Human Umbilical Vein Endothelial Cells). Description: HUVEC proliferation (crystal violet). Type of assay: cell-based. The note with it: 40 μM, 48 h, 5,000 HUVEC per well in ECGM, 560 nm, means ± SD (n = 16), N = 3. On the procedure:
Figure 1. […] 5,000 HUVEC were seeded in a 96 well plate and incubated with or without 40 μM NC1(XIX) or F4 for 48 hours. After washing, cells were fixed with glutaraldehyde and stained with crystal violet. Dye was eluted with 10% acetic acid and absorbance was read at 560 nm. The values are the means ± SD (n = 16). The experiment was repeated three times (N = 3) and the results presented in the figure correspond to the more representative one
(§1) Human Umbilical Vein Endothelial Cells (HUVEC) (Ref C-12253) were purchased from Promocell. They were grown in Endothelial Cell Growth Medium (ECGM) (Promocell, Ref C-22110: Basal medium supplemented with 0.02 mL/mL Fetal Calf Serum, 0.004 mL/mL Endothelial Cell Growth Supplement, 0.1 ng/mL Epidermal Growth Factor (recombinant human), 1 ng/mL Basic Fibroblast Growth Factor (recombinant human), 90 μg/mL Heparin, 1 μg/mL Hydrocortisone) at +37°C in a humid atmosphere containing 5% CO2. PromoCell Detach Kit was used for the detachment of HUVEC according to the manufacturer’s protocols (Promocell, ref C-41200).
For cell proliferation measurement, 5,000 HUVEC were seeded in 96-well plates and cultivated in ECGM with or without 40 μM NC1(XIX) or F4 at +37°C in a humid atmosphere containing 5% CO2. […] Dye was eluted with 10% (v/v) acetic acid and absorbance was read at 560 nm.

The test system of assay [2] is inhibitory nerve terminal assembly. Set-up: method as in PMID 26975851. The following applies: in vitro; ref [27]; cited from earlier work.
Assay [3] deals with Sprague Dawley rat aortic rings. Description: Ex vivo rat aortic ring assay (endothelial cell outgrowth). Type of assay: cell-based. The following applies: 40 μM, 14 days, Opti-MEM with 30 ng/mL VEGF, Matrigel, mean ± SD (n = 5), N = 2; p < 0.01 NC1(XIX), p < 0.001 F4. On the procedure: Figure 3. NC1(XIX) and F4 inhibit endothelial cell ex vivo migration. Rat aortic rings were embedded in Matrigel in 24 well-plate and then incubated with or without 40 μM NC1(XIX) or F4 for 14 days. Micro-vessel outgrowth was observed under an inverted microscope after 14 days and photographed (a). Cell outgrowth from the tissue explant was measured using a home-made macro based on ImageJ analysis software. The results are presented as mean ± SD (n = 5 replicates) (b). The experiment was repeated twice (N = 2)
The ex vivo rat aortic ring assay was adapted from Baker et al.. Thoracic aorta was dissected from Sprague Dawley rat and stored in Opti-MEM (ThermoFisher, ref 31985062) supplemented with 1% penicillin/streptomycin in a Petri dish. Aorta was then cut into 0.5 mm rings that were incubated in Opti-MEM overnight at +37°C in a Petri dish. Matrigel (7 mg/mL) was loaded in 24-well plate and allowed to polymerize at +37°C for 30 min. The rings were carefully transferred from the Petri dish onto the Matrigel coated wells and were completely embedded by addition of Matrigel. The plate was incubated at +37°C for 30 min. Opti-MEM supplemented with 30 ng/mL VEGF with or without 40 μM NC1(XIX) or F4 was added. Plate was incubated at +37°C in a humid atmosphere containing 5% CO2 for 14 days. The supplemented culture medium was changed every 3 days. Rings were imaged under an inverted light microscope at 14 days. Quantitative evaluation of the angiogenic sprouting was determined by measuring the number of endothelial cell outgrowth from the primary tissue explant using a homemade macro based on ImageJ analysis software. The first step consisted in the semi-automatic selection of aortic ring shape at day 0 by manual threshold allowing the design of a top hat filter to obtain a relevant mask of this structure. The mask was then substracted from day 14 image to keep only outgrowing cells. The second step consisted in a manual threshold and the use of ‘Analyze Particules’ tool involving size criteria. The total cell number of cell outgrowing from the ring was determined.

The test system of the next assay is mouse melanoma model. The note with it: mouse melanoma model; ref [22],[23]; cited from earlier work. The source says:
(§2) The aim of the present work was to study the anti-angiogenic properties of F4 peptide. […] By affinity chromatography, we identified αvβ3 and α5β1 integrins as potential receptors for F4 peptide on endothelial cell surface. Using solid phase assays, ... || Type XIX collagen, that belongs to the FACIT family (Fibril-Associated Collagens with Interrupted Triple helices), is a minor collagen associated to the basement membrane zone.

Another assay concerns melanoma cell. The note with it: earlier work of the authors; ref [22],[23]; cited from earlier work.
Excerpt: as §2

Assay [4] has as its system α5β1 integrin. Further details: method as in PMID 26975851. The following applies: NC1(XIX) covalently coupled to agarose beads, cortical protein extract; ref [27]; cited from earlier work.
For the next assay, the system named is HUVEC. As to the kind of experiment: Capillary (pseudo-)tube formation on Matrigel. It counts as cell-based, human. The note with it: 40 µM. On the procedure:
Figure 2. NC1(XIX) and F4 inhibit endothelial cell in vitro pseudotube formation. 50,000 HUVEC were seeded in Matrigel coated well of a 48 well-plate and incubated with or without 40 μM NC1(XIX) or F4. Pseudotube formation was observed and photographed under an inverted microscope after 8 hours (a). The number of segments, of nodes and the total length of pseudotubes were quantified by the ImageJ software, using the Angiogenesis Analyzer tool (b). The values are the means ± SD (n = 8 replicates). *** p < 0.001). The experiment was repeated three times (N = 3)
as §1
The ability of HUVEC to form pseudo-tubes was investigated on Matrigel (Corning, ref 356237). Matrigel was loaded into 48-well plate and allowed to polymerize at +37°C for 2 h. 50,000 HUVEC suspended in Basal media supplemented with 0.004 mL/mL Endothelial Cell Growth Supplement, 90 μg/mL Heparin, 1 μg/mL Hydrocortisone with or without 40 μM NC1(XIX) or F4 were seeded into each well. Plates were incubated at +37°C in a humid atmosphere containing 5% CO2, 95% for 8 h. The formation of the capillary network was then imaged under an inverted light microscope. Quantitative evaluation of the capillary network was performed using the angiogenesis analyzer tool of ImageJ analysis software. The number of nodes, of segments and the total length of the capillary network were determined.

In assay [5] the test system is α5β1 integrin. As to the kind of experiment: Solid phase assay, direct binding to α5β1. Set-up: species or system human. The following applies: coated integrin 26 × 10^−7 to 0.1 × 10^−7 mol/L; biotinylated-F4 26 × 10^−5 mol/L, or 20.8 × 10^−4 to 0.16 × 10^−4 mol/L; 90 min, room temperature, streptavidin-peroxidase/TMB, 450 nm; N = 2. The source says:
(§3) Figure 5. F4 directly binds to αvβ3 and α5β1 integrins. Direct interaction between αvβ3 or α5β1 integrin and F4 was studied using solid phase assays as described in the material and method section. The F4 peptide was biotinylated to allow its detection using the streptavidin-peroxidase complex. Different conditions were used. (a-b) The amounts of coated αvβ3 (a) or α5β1 integrin (b) were increased while biotinylated F4 peptide was kept constant. (c-d) The concentration of biotinylated F4 peptide was increased while coated amounts of αvβ3 (c) or α5β1 (d) integrins were kept constant. (e-f) Competitive assays were performed using increasing concentrations of F4 peptide while biotinylated-F4 peptide and αvβ3 (e) or α5β1 (f) integrins were kept constant. […]
(§4) Wells of a 96-well plate were coated with α5β1 (ref. 3230-A5-050, R&D systems) and/or αvβ3 integrin (ref. 3050-AV-050, R&D systems) at different concentrations ranging from 26 × 10^−7 mol/L to 0.1 × 10^−7 mol/L (100 μL per well in PBS). […] The intensity of the yellow coloration was measured at 450 nm with an LB940 spectrophotometer (Berthold Technologies).
(§5) The optimum integrin amount for the coating was determined using the above protocol and the optimum ligand concentration was sought using different dilutions of the biotinylated-F4 peptide ranging from 20.8 × 10^−4 to 0.16 × 10^−4 mol/L.

For a further assay, the system named is αvβ3 integrin. As to the kind of experiment: Solid phase assay, direct binding to αvβ3. Further details: species or system human. The following applies: coated integrin 26 × 10^−7 to 0.1 × 10^−7 mol/L; biotinylated-F4 26 × 10^−5 mol/L, or 20.8 × 10^−4 to 0.16 × 10^−4 mol/L; 90 min, room temperature, streptavidin-peroxidase/TMB, 450 nm; N = 2.
Excerpt: as §3, §4, §5

Where [6] appears, read: 8 h, 50,000 HUVEC on Matrigel, ImageJ Angiogenesis Analyzer, p < 0.001 for NC1(XIX) and F4, n = 8, N = 3.

As for “NPEDCLYPVSHAHQRTGGN [NC1(XIX), NC1(XIX) domain at the C-terminus of the α1(XIX) collagen chain]”, the “effect on HUVEC proliferation” value in [1] was “not significantly modified; also recorded: does not affect endothelial cell proliferation”. The “inhibitory nerve terminal assembly” value in [2] is reported as “involved in triggering inhibitory nerve terminal assembly in vitro”. For the same substance, the “change of cell outgrowth from aortic ring vs control” value in assay [3] is −57%. Moreover, the “in vivo tumor growth and angiogenesis” value in the assay with mouse melanoma model is reported as “strongly inhibits in vivo tumor growth as well as angiogenesis”. Also, in the assay with melanoma cell, the “melanoma cell migration and invasion” value was “inhibits melanoma cell migration and invasion”. Further, the “purification of α5β1 integrin on immobilised peptide” value in the assay with α5β1 integrin [4] was “able to purify α5β1 integrin from cortical protein extract”. In the assay with HUVEC (setting [6]), the “decrease of the number of nodes vs control” value amounted to 57%, the “decrease of the number of segments vs control” value was found to be 33% and the “decrease of the total length of capillary tubes vs control” value came out at 31%. Also, the “inhibition of pseudo-tube formation” value with HUVEC (8 h, HUVEC on Matrigel, compared to control) is reported as “strongly inhibited pseudo-tube formation”.
As for “biotinylated-F4: The F4 peptide was biotinylated to allow its detection using the streptavidin-peroxidase complex (CNPEDCLYPVSHAHQR; disulfide 1-6 (inferred); also: biotinylated (position not given here))”, the “binding to α5β1, concentration dependence” value in the assay on α5β1 integrin [5] was “dependent both on the receptor (Figure 5(a,b)) and on ligand (Figure 5(c,d)) concentrations”. Besides, in the assay with αvβ3 integrin, the “binding to αvβ3, concentration dependence” value is “dependent both on the receptor (Figure 5(a,b)) and on ligand (Figure 5(c,d)) concentrations”.
